{
  "source": "patent US6482412B1",
  "about": "“Polypeptide having human HIV inhibitory activity, a gene encoding the polypeptide, a method to produce the polypeptide” (Gakkou Houjin Kitasato Gakuen, priority 1999, dated 2002)",
  "type_in_all_cases": "cell-based",
  "key": {"[1]": {"test_system": "syncytium formation by fusion of HeLa/CD4/LTR cells and HeLa135/env (T-tropic HIV-1)/Tat cells", "experiment": "cells", "details": "Human immunodeficiency virus 1, HeLa, read-out: IC50 of syncytium formation ability", "procedure": "50 μl of HeLa/CD4 /LTR cell suspension prepared to 1.6×10^5 cells/ml was inoculated into every each well of 96 well plate (IWAKI MICROPLATE 96well), and 10 μl of the sample, diluted in a series of concentration with phosphate buffer physiological saline, was added to every each well. Then, 50 μl of HeLa135/env(envelope glycoprotein: originated from T-tropic HIV-1)/Tat cell suspension prepared to 1.6×10^5 cells/ml was dispensed to every well, and incubated in an incubator at 37° C. under 5% CO2 air current for 24 hours. After removal of the culture fluid from each well, 20 μl of cell lysis solution was added to every each well, and the plate was left at the room temperature for about 10 minutes.\nContinuously, 100 μl of chromogenic substrate solution (Z-buffer: 80 μl+4 mg/ml o-nitrophenyl-β-D-glactopyranoside:20 μl) was added to each well, and reacted in the incubator at 37° C. […] After 80 minutes, 25 μl of reaction stop solution (2M Na2CO3) was added to it, and the absorbance at 405 nm was measured using colorimeter (Organ ON SystemMicrowell System Reader 510). Syncytium formation ability was calculated from the obtained absorbance by the following formula.\nSyncytium formation ability=the absorbance of the well with sample addition/absorbance of control×100"}, "HIV infected MT-4 cell": {"test_system": "HIV infected MT-4 cell", "experiment": "Anti-HIV activity by suppression of cytopathic effect, MTT method", "details": "Human immunodeficiency virus 1, MT4, 120 h, read-out: BC50", "procedure": "(§1) Anti-HIV activity was measured from suppression of cytopathic effect caused by HIV infection. The HIV infected MT-4 cell (2.5×10^4 cells/well, degree of multiple infection: 0.01) was added to 96 well titer plate immediately after infection. At the same time, K97-0003 peptide of various concentration was also added to the plate. In order to examine cytopathic effect of K97-0003 peptide on MT-4 cell, cells uninfected by HIV was incubated with K97-0003 peptide of various concentrations in the same manner. After five days of incubation at 37° C. in a CO2 incubator, the number of cell survived was measured by MTT method.\n(1) EC50: It is the concentration of K97-0003 peptide which inhibits 50% of the cytotoxicity by HIV infection, and is the parameter of anti-HIV activity of the peptide."}, "[2]": {"experiment": "Cytotoxicity on uninfected MT-4 cells, MTT method", "details": "human, five days", "procedure": "as §1\n(2) CC50: It is the concentration of K97-0003 peptide that causes cytotoxicity to 50% of cells, and is the parameter of cytotoxic effect of the peptide."}},
  "data": [
    {"smiles": "CN1C(=O)[C@@H](c2cc(Cl)c(O)c(Cl)c2)NC(=O)[C@@H]2NC(=O)[C@@H](c3cc(Cl)c(O)c(Cl)c3)NC(=O)[C@H](NC(=O)C(=O)c3cc(Cl)c(O)c(Cl)c3)Cc3c[nH]c4c(cccc34)-c3cc2cc(c3O)Oc2ccc(cc2)C[C@H]1C(=O)N[C@@H](C(=O)O)c1ccc(O)cc1", "note": "[Chloropeptine, chloropeptin, reference compound]", "values": [
      {"measurement": "IC50", "setting": "[1]", "value": 1.7, "unit": "mg/L"},
      {"measurement": "EC50", "setting": "HIV infected MT-4 cell", "value": 1.6, "unit": "µM"},
      {"measurement": "CC50 at 5 days", "setting": "[2]", "value": "> 600", "unit": "µM"}
    ]}
  ]
}
